# According to patent US10208021B2, “Substituted tetrahydroisoquinoline compounds as factor XIa inhibitors” (BRISTOL-MYERS SQUIBB COMPANY, priority 2011, dated 2019):
# Where a name gives a salt, the structure may show the parent alone.
# Target: purified human Factor XIa (Homo sapiens (Human), UniProt P03951)
# Test: Factor XIa chromogenic substrate (S-2366) inhibition assay
# Type: biochemical
# Procedure, shortened: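 Ki derived from reaction velocities measured in the presence of inhibitor. Purified protease hydrolysed the chromogenic substrate; rate of absorbance change was followed over 20-180 minutes, depending on the protease.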
# [1] = substrate S-2366, activity ranges, Table A
# Chain of purified human Factor XIa (P03951 388-625): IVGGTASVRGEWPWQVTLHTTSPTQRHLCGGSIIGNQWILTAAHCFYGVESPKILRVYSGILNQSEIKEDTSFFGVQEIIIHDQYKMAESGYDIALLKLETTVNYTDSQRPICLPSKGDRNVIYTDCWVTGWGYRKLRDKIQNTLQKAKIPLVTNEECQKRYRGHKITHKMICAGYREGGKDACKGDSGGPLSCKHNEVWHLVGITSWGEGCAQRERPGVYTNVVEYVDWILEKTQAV
# Chain of purified human Factor XIa (P03951 19-387 partner): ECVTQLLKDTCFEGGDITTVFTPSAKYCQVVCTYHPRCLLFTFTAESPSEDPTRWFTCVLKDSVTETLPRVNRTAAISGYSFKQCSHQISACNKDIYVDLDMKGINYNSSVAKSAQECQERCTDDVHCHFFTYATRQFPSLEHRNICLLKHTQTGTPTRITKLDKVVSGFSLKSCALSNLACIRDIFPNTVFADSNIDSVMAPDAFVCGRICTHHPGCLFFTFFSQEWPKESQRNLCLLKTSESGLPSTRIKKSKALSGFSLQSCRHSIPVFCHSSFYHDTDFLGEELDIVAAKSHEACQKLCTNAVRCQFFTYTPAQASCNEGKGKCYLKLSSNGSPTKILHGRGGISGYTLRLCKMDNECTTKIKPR
Compound,Ki [1] [nM],"Ki (substrate S-2366, Table 1) [nM]"
CCOC(=O)c1ccc(NC(=O)C2c3cccc(N4CCC(N5CCCC5)CC4)c3CCN2C(=O)/C=C/c2c(C(C)=O)ccc(Cl)c2F)cc1 (racemic) [Example 160],5 to 10,
CC(C)(C)OC(=O)CCNC(=O)C1c2cccc(N3CCC(N4CCCC4)CC3)c2CCN1C(=O)/C=C/c1c(-n2cnnn2)ccc(Cl)c1F (racemic) [Example 230],100 to 500,
O=C(O)c1ccc(NC(=O)C2c3cccc(N4CCC(N5CCCC5)CC4)c3CCN2C(=O)/C=C/c2ccccc2F)cc1 (racemic) [Example 181],5 to 10,
CC(=O)c1ccc(Cl)c(F)c1/C=C/C(=O)N1CCc2c(cccc2N2CCC(C(=O)N(C)C)CC2)[C@H]1C(=O)Nc1ccc(C(=O)O)cc1 [Example 219],< 5,
O=C(O)c1ccc(NC(=O)[C@H]2c3cccc(N4CCCCC4=O)c3CCN2C(=O)/C=C/c2cc(Cl)c(F)cc2-n2cnnn2)cc1 [compound 41],,5640
CCOC(=O)c1ccc(NC(=O)C2c3cccc(N4CCOCC4)c3CCN2C(=O)C=Cc2c(-n3cnnn3)ccc(Cl)c2F)cc1 (stereo not shown) [Example 185],5 to 10,
NC1CCN(c2cccc3c2CCN(C(=O)/C=C/c2c(-n4cnnn4)ccc(Cl)c2F)C3C(=O)Nc2ccc(C(=O)O)cc2)CC1 (racemic) [Example 97],< 5,
O=C(O)c1ccc(NC(=O)C2c3cccc(N4CCC(C(=O)N5CCCC5)CC4)c3CCN2C(=O)/C=C/c2c(-n3cnnn3)ccc(Cl)c2F)cc1 (racemic) [Example 131],,< 5
CC(C)(C)OC(=O)c1ccc(NC(=O)[C@@H]2c3cccc(N4CCOCC4=O)c3CCN2C(=O)/C=C/c2c(-n3cnnn3)ccc(Cl)c2F)cc1 [Example 50],100 to 500,
CC1(C)Cc2c(cccc2N2CCCCC2)[C@H](C(=O)Nc2ccc(C(=O)O)cc2)N1C(=O)/C=C/c1c(-n2cnnn2)ccc(Cl)c1F [Example 196],,844
CCOC(=O)CCNC(=O)N1CCN(c2cccc3c2CCN(C(=O)/C=C/c2cc(Cl)ccc2-n2cnnn2)C3C(=O)Nc2ccc(C(=O)O)cc2)CC1 (stereo not shown) [Example 21],< 5,
"NC(=O)c1ccc(NC(=O)C2c3cccc(N4CCNCC4)c3CCN2C(=O)/C=C/c2cc(Cl)c(F)cc2-n2cnnn2)cc1 (stereo not shown) [Example 66, (E)-N-(4-carbamoylphenyl)-2-(3-(5-chloro-4-fluoro-2-(1H-tetrazol-1-yl)phenyl)acryloyl)-5-(piperazin-1-yl)-1,2,3,4-tetrahydroisoquinoline-1-carboxamide, bis-TFA Salt]",5 to 10,
CCOC(=O)c1ccc(NC(=O)C2c3cccc(N4CCC(N5CCCC5=O)CC4)c3CCN2C(=O)C=Cc2c(-n3cnnn3)ccc(Cl)c2F)cc1 (stereo not shown) [Example 125],,1010
O=C(O)c1ccc(NC(=O)[C@@H]2c3cccc(N4CCCCC4=O)c3CCN2C(=O)/C=C/c2cc(Cl)c(F)cc2-n2cnnn2)cc1 [compound 42],5 to 10,
O=C(O)c1ccc(NC(=O)C2c3cccc(N4CCC5(CCN(Cc6ccccc6)C5=O)CC4)c3CCN2C(=O)/C=C/c2c(-n3cnnn3)ccc(Cl)c2F)cc1 (racemic) [Example 121],< 5,
Cn1ncc2cc(NC(=O)C3c4cccc(N5CCC(N6CCCC6)CC5)c4CCN3C(=O)/C=C/c3c(-n4cnnn4)ccc(Cl)c3F)ccc21 (racemic) [Example 127],< 5,
CCOC(=O)c1ccc(NC(=O)[C@@H]2c3cccc(N4CCCCC4=O)c3CCN2C(=O)/C=C/c2c(-n3cnnn3)ccc(Cl)c2F)cc1 [compound 45],5 to 10,
CC1(C(=O)N2CCCC2)CCN(c2cccc3c2CCN(C(=O)/C=C/c2c(-n4cnnn4)ccc(Cl)c2F)C3C(=O)Nc2ccc(C(=O)O)cc2)CC1 (racemic) [Example 152],< 5,
"CC(=O)c1ccc(Cl)c(F)c1/C=C/C(=O)N1CCc2c(cccc2N2CCN(C)CC2)C1C(=O)Nc1ccc(C(=O)O)cc1 (stereo not shown) [Example 79, (E)-4-(2-(3-(6-acetyl-3-chloro-2-fluorophenyl)acryloyl)-5-(4-methylpiperazin-1-yl)-1,2,3,4-tetrahydroisoquinoline-1-carboxamido)benzoic acid, bis-TFA Salt]",< 5,
CC(C)(C)OC(=O)c1ccc(NC(=O)C2c3cccc(N4CCNCC4)c3CCN2C(=O)/C=C/c2c(-n3cnnn3)ccc(Cl)c2F)cc1 (stereo not shown) [Example 7],,49.7
CN1CCCN(c2cccc3c2CCN(C(=O)C=Cc2c(-n4cnnn4)ccc(Cl)c2F)C3C(=O)Nc2ccc(C(=O)O)cc2)CC1 (stereo not shown) [Example 265],< 5,
CC(=O)c1ccc(Cl)c(F)c1/C=C/C(=O)N1CCc2c(cccc2N2CCCCC2=O)C1C(=O)Nc1ccc(C(=O)O)cc1 (racemic) [compound 38],5 to 10,
O=C(O)c1ccc(NC(=O)C2c3cccc(N4CCC(N5CCOCC5)CC4)c3CCN2C(=O)/C=C/c2c(-n3cnnn3)ccc(Cl)c2F)cc1 (racemic) [Example 138],< 5,
COC(=O)N[C@H]1CC[C@H](NC(=O)C2c3cccc(N4CCC(N5CCCC5)CC4)c3CCN2C(=O)/C=C/c2c(-n3cnnn3)ccc(Cl)c2F)CC1 (mixture of isomers) [Example 238],5 to 10,
CC1(C)Cc2c(cccc2N2CCCCC2)[C@@H](C(=O)Nc2ccc(C(=O)O)cc2)N1C(=O)/C=C/c1c(-n2cnnn2)ccc(Cl)c1F [Example 195],< 5,
O=C(O)c1ccc(NC(=O)C2c3cccc(N4CCC5(CCNCC5)CC4)c3CCN2C(=O)/C=C/c2c(-n3cnnn3)ccc(Cl)c2F)cc1 (racemic) [Example 146],< 5,

Compound,Ki [1] [nM],"Ki (substrate S-2366, Table 1) [nM]"
CCOC(=O)c1ccc(NC(=O)[C@@H]2c3cccc(N4CCC(C(=O)N5CCCC5)CC4)c3CCN2C(=O)/C=C/c2c(-n3cnnn3)ccc(Cl)c2F)cc1 [Example 135],< 5,
CC1(C)Cc2c(cccc2N2CCOCC2)[C@H](C(=O)Nc2ccc(C(=O)O)cc2)N1C(=O)/C=C/c1c(-n2cnnn2)ccc(Cl)c1F [Example 200],100 to 500,
COC(=O)Nc1ccc(NC(=O)C2c3cccc(N4CCC(N5CCCC5)CC4)c3CCN2C(=O)C=Cc2c(-n3cnnn3)ccc(Cl)c2F)cc1 (stereo not shown) [Example 99],< 5,
N#CC1CCN(c2cccc3c2CCN(C(=O)/C=C/c2c(-n4cnnn4)ccc(Cl)c2F)C3C(=O)Nc2ccc(C(=O)O)cc2)CC1 (racemic) [Example 147],< 5,
O=C(O)c1ccc(NC(=O)C2c3cccc(N4CCC(N5CCCC5)CC4)c3CCN2C(=O)/C=C/c2cccc(Cl)c2)cc1 (racemic) [Example 156],5 to 10,
CCCCOC(=O)c1ccc(NC(=O)C2c3cccc(N4CCC(N5CCCC5)CC4)c3CCN2C(=O)C=Cc2c(-n3cnnn3)ccc(Cl)c2F)cc1 (stereo not shown) [Example 114],< 5,
COCCOC1CCN(c2cccc3c2CCN(C(=O)/C=C/c2c(C(C)=O)ccc(Cl)c2F)C3C(=O)Nc2ccc(C(=O)O)cc2)CC1 (racemic) [Example 269],< 5,
CCOC(=O)c1ccc(NC(=O)C2c3cccc(N4CCN(C)CC4)c3CCN2C(=O)C=Cc2c(-n3cnnn3)ccc(Cl)c2F)cc1 (stereo not shown) [compound 29],5 to 10,
CC(=O)c1ccc(Cl)c(F)c1/C=C/C(=O)N1CCc2c(cccc2N2CCC(N3CCOCC3)CC2)C1C(=O)Nc1ccc(C(=O)O)cc1 (racemic) [Example 220],< 5,
CCOC(=O)c1ccc(NC(=O)C2c3cccc(N4CCC(N5CCCC5)CC4)c3CCN2C(=O)C=Cc2c(-n3cnnn3)ccc(Cl)c2F)cc1 (stereo not shown) [Example 94],,< 5
O=C(N[C@H]1CC[C@H](O)CC1)C1c2cccc(N3CCC(N4CCCC4)CC3)c2CCN1C(=O)/C=C/c1c(-n2cnnn2)ccc(Cl)c1F (mixture of isomers) [Example 236],5 to 10,
CCOC(=O)c1ccc(NC(=O)[C@@H]2c3cccc(N4CCC(N(C)C)CC4)c3CCN2C(=O)/C=C/c2c(-n3cnnn3)ccc(Cl)c2F)cc1 [Example 129],< 5,
CCOC(=O)C1CCN(c2cccc3c2CCN(C(=O)/C=C/c2c(-n4cnnn4)ccc(Cl)c2F)C3C(=O)Nc2ccc(C(=O)O)cc2)CC1 (racemic) [Example 136],< 5,
NC(=O)CCNC(=O)c1ccc(NC(=O)C2c3cccc(N4CCNCC4)c3CCN2C(=O)/C=C/c2cc(Cl)c(F)cc2-n2cnnn2)cc1 (racemic) [Example 73],500 to 5000,
CC(=O)c1ccc(Cl)c(F)c1/C=C/C(=O)N1CCc2c(cccc2N2CCC(C(=O)N(C)C)CC2)C1C(=O)Nc1ccc(C(=O)O)cc1 (racemic) [Example 218],< 5,
COC(=O)Nc1ccc(NC(=O)C2c3cccc(N4CCNCC4)c3CCN2C(=O)/C=C/c2c(-n3cnnn3)ccc(Cl)c2F)cc1 (stereo not shown) [Example 4],,10.3
CC(=O)c1ccc(Cl)c(F)c1C=CC(=O)N1CCc2c(cccc2N2CCC3(CCN(C)C3=O)CC2)C1C(=O)Nc1ccc(C(=O)O)cc1 (stereo not shown) [Example 221],5 to 10,
CC(=O)c1ccc(Cl)c(F)c1C=CC(=O)N1CCc2c(cccc2N2CCC(N3CCCC3)CC2)C1C(=O)Nc1ccc(C(=O)OCC(=O)N(C)C)cc1 (stereo not shown) [Example 172],< 5,
COC1CCN(c2cccc3c2CCN(C(=O)/C=C/c2c(-n4cnnn4)ccc(Cl)c2F)[C@@H]3C(=O)Nc2ccc(C(=O)O)cc2)CC1 [Example 151],< 5,
CC(C)(C)OC(=O)c1ccc(NC(=O)C2c3cccc(N4CCC(N5CCCC5)CC4)c3CCN2C(=O)/C=C/c2c(-n3cnnn3)ccc(Cl)c2F)cc1 (racemic) [Example 84],< 5,
CCOC(=O)c1ccc(NC(=O)C2c3cccc(N4CCC(N5CCCC5)CC4)c3CCN2C(=O)C=Cc2c(C(C)=O)ccc(Cl)c2F)cc1 (stereo not shown) [Example 170],< 5,
O=C(NC1CCCNC1)C1c2cccc(N3CCC(N4CCCC4)CC3)c2CCN1C(=O)C=Cc1c(-n2cnnn2)ccc(Cl)c1F (mixture of isomers) [Example 237],,4620
O=C(O)c1ccc(NC(=O)C2c3cccc(N4CCC5(CC4)OCCO5)c3CCN2C(=O)/C=C/c2c(-n3cnnn3)ccc(Cl)c2F)cc1 (racemic) [Example 142],< 5,
CC(=O)N1CCN(c2cccc3c2CC(C)(C)N(C(=O)/C=C/c2c(-n4cnnn4)ccc(Cl)c2F)[C@H]3C(=O)Nc2ccc(C(=O)O)cc2)CC1 [Example 205],5 to 10,
O=C(O)c1ccc(NC(=O)C2c3cccc(N4CCC(N5CCCC5)CC4)c3CCN2C(=O)/C=C/c2c(O)ccc(Cl)c2F)cc1 (racemic) [Example 162],< 5,
O=C(O)c1ccc(NC(=O)[C@H]2c3cccc(N4CCC(C(=O)N5CCCC5)CC4)c3CCN2C(=O)/C=C/c2c(-n3cnnn3)ccc(Cl)c2F)cc1 [Example 132],100 to 500,
